Results on 1 compound are retold here after BindingDB's records for doi:10.1016/j.bmcl.2010.01.042 (Bristol Myers Squibb, 2010).

The term IC50 denotes the midpoint of a concentration-inhibition curve.

The target in the test is Insulin-like growth factor 1 receptor (Homo sapiens) (UniProt P08069). The test is described as follows: Inhibition of IGFR1.
Sequence of Insulin-like growth factor 1 receptor (Homo sapiens) (P08069 whole entry, looked up): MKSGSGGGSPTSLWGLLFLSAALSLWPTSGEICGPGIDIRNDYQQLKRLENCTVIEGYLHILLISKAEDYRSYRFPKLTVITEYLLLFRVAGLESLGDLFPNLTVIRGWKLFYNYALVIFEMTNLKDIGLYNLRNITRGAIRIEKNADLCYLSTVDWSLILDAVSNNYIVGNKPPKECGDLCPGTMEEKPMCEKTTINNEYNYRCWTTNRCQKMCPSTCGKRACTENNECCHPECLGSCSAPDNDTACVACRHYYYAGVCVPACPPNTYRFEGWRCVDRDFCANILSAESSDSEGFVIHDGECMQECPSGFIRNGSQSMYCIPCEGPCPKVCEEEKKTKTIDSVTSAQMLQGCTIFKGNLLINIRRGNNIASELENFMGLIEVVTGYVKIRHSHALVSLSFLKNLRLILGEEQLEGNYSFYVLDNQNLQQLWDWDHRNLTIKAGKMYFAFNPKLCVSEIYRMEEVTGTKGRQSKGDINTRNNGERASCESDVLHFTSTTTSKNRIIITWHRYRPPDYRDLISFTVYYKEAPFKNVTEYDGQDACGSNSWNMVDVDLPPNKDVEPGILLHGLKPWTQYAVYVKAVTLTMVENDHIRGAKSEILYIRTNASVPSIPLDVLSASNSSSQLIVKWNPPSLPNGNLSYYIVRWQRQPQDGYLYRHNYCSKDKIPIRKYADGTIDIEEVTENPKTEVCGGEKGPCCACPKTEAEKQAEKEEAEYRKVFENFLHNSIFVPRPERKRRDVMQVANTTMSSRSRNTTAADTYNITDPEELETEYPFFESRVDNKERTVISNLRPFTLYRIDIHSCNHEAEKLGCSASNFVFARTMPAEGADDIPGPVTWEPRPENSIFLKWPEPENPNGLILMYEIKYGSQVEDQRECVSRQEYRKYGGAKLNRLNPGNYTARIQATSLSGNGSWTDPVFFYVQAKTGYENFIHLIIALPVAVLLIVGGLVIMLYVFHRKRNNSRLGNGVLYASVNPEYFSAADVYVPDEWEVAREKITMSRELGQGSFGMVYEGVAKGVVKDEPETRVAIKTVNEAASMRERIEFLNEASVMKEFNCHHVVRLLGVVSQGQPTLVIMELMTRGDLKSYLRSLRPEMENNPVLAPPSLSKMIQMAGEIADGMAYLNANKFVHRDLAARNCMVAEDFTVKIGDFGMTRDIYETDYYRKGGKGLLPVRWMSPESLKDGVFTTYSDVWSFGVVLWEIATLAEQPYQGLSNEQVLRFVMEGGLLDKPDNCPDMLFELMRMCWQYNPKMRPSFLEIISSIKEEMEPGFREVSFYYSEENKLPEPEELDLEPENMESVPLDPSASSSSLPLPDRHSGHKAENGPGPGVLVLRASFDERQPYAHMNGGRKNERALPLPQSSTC

In turn, `O=C(Nc1ccc(F)cc1F)c1cccnc1Nc1ccc(Oc2ccnc3[nH]ccc23)c(F)c1` [2-(4-(1H-pyrrolo[2,3-b]pyridin-4-yloxy)-3-fluorophenylamino)-N-(2,4-difluorophenyl)nicotinamide] had an IC50 of more than 50 µM.
